Test system: endogenous proteases
Assay: Stability of synthetic BNP-32 spiked into normal human plasma with protease inhibitors (chemiluminescent BNP immunoassay)
Type: biochemical
Conditions: for efficacy in stabilizing BNP (in words): Table 11, inhibitors at usual functional concentrations
[1] = IHPP + 10 ng/ml BNP, 4° C., AEBSF 200 μg/ml, antipain 100 μg/ml, benzamidine 14 mM, PPACK 50 μg/ml, or all four

Row | SMILES | % Recovery vs 1st run (Time 0) [%] | BNP, 1st run (Time 0) [pg/mL] | BNP, 3 hours at 4° C. [pg/mL] | BNP, 17 hours at 4° C. [pg/mL] | BNP, 40 hours at 4° C. [pg/mL] | BNP, 6 days at 4° C. [pg/mL] | 1 week (RLU) [1] [RLU] | 2 weeks (RLU) [1] [RLU] | 4 weeks % Signal Recovered [1] [%] | 4 weeks (RLU) [1] [RLU] | 72 hrs (RLU) [1] [RLU] | 22 days (RLU) [1] [RLU] | Day 0 (RLU) [1] [RLU] | efficacy in stabilizing BNP (in words)
1 | NCCc1ccc(S(=O)(=O)F)cc1 [AEBSF, 4-(2-aminoethyl)benzenesulfonylfluoride] | 85.2 | 741.7 | 768.6 | 715.2 | 735.7 | 631.9 | 2504809 | 4241 | 0.1 | 2434 | 3249767 | 3812 | 4079471 | intermediate efficacy
2 | NC(N)=NCCC[C@H](NC(=O)[C@@H]1CCCN1C(=O)[C@H](N)Cc1ccccc1)C(=O)CCl [PPRACK, D-Phe-Pro-Arg-chloromethylketone] | 100.5 | 892.0 | 894.6 | 957.6 | 939.7 | 896.2 |  |  |  |  |  |  |  | act as efficiently as antipain, leupeptin and PPACK
